Experimental data published in ChEMBL document CHEMBL5375967 (J Med Chem, 2023).
≈ marks a conversion by molar mass, not a printed value. Calls of active or inactive are those of the source. The calls are words filed in the database; no cut-off is given here.

Assays:
[1] = target: T1, Leukotriene A-4 hydrolase (Homo sapiens, UniProt P09960); assay: Inhibition of LTA4H (unknown origin) using Arg-AMC as substrate preincubated with compound for 15 mins followed by substrate addition and measured after every 10 mins for 300 mins by fluorescence based assay
T1 sequence (P09960 whole entry): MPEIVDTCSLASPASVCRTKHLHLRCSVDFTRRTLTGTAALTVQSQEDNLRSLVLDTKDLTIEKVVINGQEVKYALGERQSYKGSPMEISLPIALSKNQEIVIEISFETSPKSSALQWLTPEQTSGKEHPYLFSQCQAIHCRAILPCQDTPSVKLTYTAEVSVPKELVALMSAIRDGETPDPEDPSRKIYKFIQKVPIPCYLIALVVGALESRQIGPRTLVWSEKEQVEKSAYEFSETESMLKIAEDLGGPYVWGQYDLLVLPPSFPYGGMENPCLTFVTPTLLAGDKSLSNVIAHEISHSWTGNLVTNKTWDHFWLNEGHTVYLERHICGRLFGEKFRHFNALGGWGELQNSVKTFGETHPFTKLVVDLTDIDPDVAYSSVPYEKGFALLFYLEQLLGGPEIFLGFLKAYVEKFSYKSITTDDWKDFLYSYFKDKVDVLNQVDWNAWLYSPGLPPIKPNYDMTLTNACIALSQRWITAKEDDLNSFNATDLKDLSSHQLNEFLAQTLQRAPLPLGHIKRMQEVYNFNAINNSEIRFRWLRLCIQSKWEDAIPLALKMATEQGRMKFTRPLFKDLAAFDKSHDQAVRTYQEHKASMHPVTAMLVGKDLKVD

[2] = Inhibition of calcium ionophore A23187-stimulated LTB4 release in C57BL/6 mouse model at 10 mg/kg, po bid measured after 2 hrs; assay type: functional
[3] = Clearance in C57BL/6 mouse at 1 mg/kg, iv measured upto 24 hrs by LC-MS/MS analysis; assay type: ADME, organism-based; conditions: in vivo
[4] = Volume of distribution at steady state in C57BL/6 mouse at 1 mg/kg, iv measured upto 24 hrs by LC-MS/MS analysis; assay type: ADME, organism-based; conditions: in vivo, read-out: Vdss
[5] = MRT in C57BL/6 mouse at 1 mg/kg, iv measured upto 24 hrs by LC-MS/MS analysis; assay type: ADME, organism-based; conditions: in vivo
[6] = MRT in Wistar rat at 1 mg/kg, iv measured upto 24 hrs by LC-MS/MS analysis; assay type: ADME, organism-based; conditions: in vivo
[7] = Clearance in dog at 1 mg/kg, iv measured upto 24 hrs by LC-MS/MS analysis; assay type: ADME, organism-based, Canis lupus familiaris; conditions: in vivo
[8] = Half life in dog at 1 mg/kg, iv measured upto 24 hrs by LC-MS/MS analysis; assay type: ADME, organism-based, Canis lupus familiaris; conditions: in vivo
[9] = Oral bioavailability in C57BL/6 mouse at 3 mg/kg measured upto 24 hrs by LC-MS/MS analysis; assay type: ADME, organism-based; conditions: in vivo
[10] = Cmax in Wistar rat at 3 mg/kg, po measured upto 24 hrs by LC-MS/MS analysis; assay type: ADME, organism-based; parameters: dose 3 mg/kg, time < 24 hrs, route po; conditions: in vivo
[11] = Oral bioavailability in Wistar rat at 3 mg/kg measured upto 24 hrs by LC-MS/MS analysis; assay type: ADME, organism-based; conditions: in vivo
[12] = Cmax in dog at 3 mg/kg, po measured upto 24 hrs by LC-MS/MS analysis; assay type: ADME, organism-based, Canis lupus familiaris; parameters: time < 24 hrs, dose 3 mg/kg, route po; conditions: in vivo
[13] = AUC (0 to infinity) in dog at 3 mg/kg, po measured upto 24 hrs by LC-MS/MS analysis; assay type: ADME, organism-based, Canis lupus familiaris; parameters: time < 24 hrs, dose 3 mg/kg, route po; conditions: in vivo
[14] = Metabolic stability in rat hepatocyte assessed as intrinsic clearance; assay type: ADME, cell-based; conditions: hepatocytes
[15] = Solubility of compound in FaSSIF at pH 6.8; assay type: physicochemical
[16] = Drug concentration in blood of arachidonic acid-induced skin inflammation 129S2/SvPasCrl mouse model at 0.03 mg/kg, po measured after 4 hrs; assay type: ADME, organism-based; conditions: read-out: Ct
[17] = Drug concentration in blood of arachidonic acid-induced skin inflammation 129S2/SvPasCrl mouse model at 0.3 mg/kg, po measured after 4 hrs; assay type: ADME, organism-based; conditions: read-out: Ct
[18] = Drug concentration in blood of arachidonic acid-induced skin inflammation 129S2/SvPasCrl mouse model at 3 mg/kg, po measured after 4 hrs; assay type: ADME, organism-based; conditions: read-out: Ct
[19] = Inhibition of arachidonic acid-stimulated LTB4 release in skin inflammation 129S2/SvPasCrl mouse model at 0.03 mg/kg, po pretreated with compound for 4 hrs followed by arachidonic acid stimulation and measured after 1 hr; assay type: functional; conditions: time 5 hrs
[20] = Inhibition of arachidonic acid-stimulated LTB4 release in skin inflammation 129S2/SvPasCrl mouse model at 3 mg/kg, po pretreated with compound for 4 hrs followed by arachidonic acid stimulation and measured after 1 hr; assay type: functional; conditions: time 5 hrs
[21] = Inhibition of neutrophil influx in arachidonic acid-stimulated skin inflammation 129S2/SvPasCrl mouse model assessed as effect on MPO level in skin at 3 mg/kg, po pretreated with compound for 4 hrs followed by arachidonic acid stimulation and measured after 1 hr; assay type: functional; conditions: time 5 hrs
Mus musculus [22] = assay: Antiarthritic activity in KRN passive serum-induced arthritis C57BL/6 mouse model assessed as reduction in cellularity at 0.1 to 10 mg/kg, po bid measured on day 7 at 2 hrs after first dose and 14 hrs after second dose; assay type: functional, organism-based; conditions: dose 0.1-10 mg/kg, time 7.0 day
Mus musculus [23] = assay: Antiarthritic activity in KRN passive serum-induced arthritis C57BL/6 mouse model assessed as reduction in joint damage at 0.1 to 10 mg/kg, po bid measured on day 7 at 2 hrs after first dose and 14 hrs after second dose; assay type: functional, organism-based; conditions: dose 0.1-10 mg/kg, time 7.0 day
Mus musculus [24] = assay: Antiarthritic activity in KRN passive serum-induced arthritis C57BL/6 mouse model assessed as reduction in macrophage numbers at 0.1 to 10 mg/kg, po bid measured on day 7 at 2 hrs after first dose and 14 hrs after second dose; assay type: functional, organism-based; conditions: dose 0.1-10 mg/kg, time 7.0 day
Mus musculus [25] = assay: Antiarthritic activity in KRN passive serum-induced arthritis C57BL/6 mouse model assessed as reduction in neutrophil numbers at 0.1 to 10 mg/kg, po bid measured on day 7 at 2 hrs after first dose and 14 hrs after second dose; assay type: functional, organism-based; conditions: dose 0.1-10 mg/kg, time 7.0 day
[26] = target: T2, Voltage-gated inwardly rectifying potassium channel KCNH2 (Homo sapiens, UniProt Q12809)
T2 sequence (Q12809 whole entry): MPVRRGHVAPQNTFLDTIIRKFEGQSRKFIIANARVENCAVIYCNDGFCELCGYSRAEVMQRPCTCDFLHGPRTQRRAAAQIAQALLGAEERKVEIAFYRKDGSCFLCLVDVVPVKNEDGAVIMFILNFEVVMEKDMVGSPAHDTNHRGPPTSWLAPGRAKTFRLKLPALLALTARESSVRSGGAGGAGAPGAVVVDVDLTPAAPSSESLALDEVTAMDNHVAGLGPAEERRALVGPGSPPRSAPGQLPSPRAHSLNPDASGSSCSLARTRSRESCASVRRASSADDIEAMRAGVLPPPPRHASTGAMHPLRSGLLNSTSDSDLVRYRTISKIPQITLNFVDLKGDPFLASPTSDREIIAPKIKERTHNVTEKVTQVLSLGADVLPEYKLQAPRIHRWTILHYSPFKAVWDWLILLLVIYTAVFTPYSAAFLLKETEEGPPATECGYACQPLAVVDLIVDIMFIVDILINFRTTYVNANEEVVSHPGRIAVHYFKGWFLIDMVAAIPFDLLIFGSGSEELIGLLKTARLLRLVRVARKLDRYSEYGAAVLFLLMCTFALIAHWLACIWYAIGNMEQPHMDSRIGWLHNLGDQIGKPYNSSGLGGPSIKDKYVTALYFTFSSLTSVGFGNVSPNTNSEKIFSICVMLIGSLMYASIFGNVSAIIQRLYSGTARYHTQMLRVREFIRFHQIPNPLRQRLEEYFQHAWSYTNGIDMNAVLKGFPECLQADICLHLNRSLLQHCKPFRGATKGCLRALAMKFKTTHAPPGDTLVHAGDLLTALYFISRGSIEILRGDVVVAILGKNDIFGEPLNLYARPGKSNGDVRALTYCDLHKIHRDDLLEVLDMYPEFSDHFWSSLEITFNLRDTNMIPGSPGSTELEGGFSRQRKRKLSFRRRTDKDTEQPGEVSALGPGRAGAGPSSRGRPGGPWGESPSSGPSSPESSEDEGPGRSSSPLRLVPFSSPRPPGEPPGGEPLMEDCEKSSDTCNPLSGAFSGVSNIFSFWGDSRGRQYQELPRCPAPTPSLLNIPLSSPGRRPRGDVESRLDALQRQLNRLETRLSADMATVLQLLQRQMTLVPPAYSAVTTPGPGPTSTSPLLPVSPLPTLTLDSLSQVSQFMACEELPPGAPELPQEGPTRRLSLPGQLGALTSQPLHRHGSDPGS

[27] = target: T2, Voltage-gated inwardly rectifying potassium channel KCNH2; remark: listed apart in the source
in vivo [28] = conditions: Sprague-Dawley, rat, iv, 1 mg/kg
in vivo [29] = conditions: Sprague-Dawley, rat, iv, 1 mg/kg; remark: listed apart in the source
in vivo [30] = conditions: Sprague-Dawley, rat, iv, 1 mg/kg; remark: listed apart in the source
in vivo [31] = conditions: C57BL/6, mouse, in vivo, po, 10 mg/kg
physchem = conditions: buffer, pH 6.8
in vitro [32] = conditions: rat, liver microsomes
in vitro [33] = conditions: human, liver microsomes

IC50 [1]: < 0.003 µM
clearance [3]: 7.5 mL/min/kg
Vd [4]: 1.6 L/kg
MRT [5]: 3.3 h
MRT [6]: 16 h
clearance [7]: 2.2 mL/min/kg
half-life [8]: 40 h
bioavailability [9]: 32%
Cmax [10]: 351 nM
bioavailability [11]: 39%
Cmax [12]: 1180 nM
AUC(0-inf) [13]: 15 µM·h
CLH [14]: 20 µL/min/mg
solubility [15]: > 2000 µg/mL
concentration at 4 h [16]: 79 nM
concentration at 4 h [17]: 108 nM
concentration at 4 h [18]: 367 nM
clearance (in vivo [28]): 20 mL/min/kg
MRT (in vivo [29]): 4.6 h
Cmax (in vivo [30]): 298 nM
concentration at 24 h (in vivo [31]): 218 nM
solubility (physchem): 180 µM (≈ 71 µg/mL)
microsomal CLint (in vitro [32]): 179 µL/min/mg
microsomal CLint (in vitro [33]): < 25 µL/min/mg
SMILES: N[C@H](CO)Cn1ccc(-c2ccc(Oc3ncc(-c4cc[nH]n4)cc3F)cc2)n1
inhibition in vivo at 10 mg/kg [2]: 95%
inhibition in vivo at 0.03 mg/kg [19]: 74%
inhibition in vivo at 3 mg/kg [20]: 97%
inhibition in vivo at 3 mg/kg [21]: 96%
Activity (Mus musculus [22]): Active
Activity (Mus musculus [23]): Active
Activity (Mus musculus [24]): Active
Activity (Mus musculus [25]): Active
IC50 [26]: > 30 µM
IC50 [27]: > 30 µM
